Source: patent publication US8278267B2 (Amylin Pharmaceuticals, LLC, priority 2005, dated 2012)

Legend:
[1] = Pramlintide on satiation and binge eating (Binge Eating Scale), single-blind placebo-controlled study in obese subjects; format: in vivo, human
Procedure: The ability of the amylin agonist pramlintide to control or influence eating behavior was examined in human subjects. For the assessment, 24 hour-food intake (FI, ad-libitum meals), weight, feelings of hunger and fullness, and binge-eating (Binge Eating Scale, BES) were measured in a single-blind, placebo-controlled study. Obese subjects without eating disorders (50/50% female/male; BMI 35.61±3.98 kg/m^2, mean±SD) were randomized to six weeks of treatment with pramlintide or placebo. Pramlintide (180 μg) was administered subcutaneously three times per day (TID) prior to meals for 6 weeks and no lifestyle intervention was provided (TID evaluable N=59, placebo evaluable N=25). […] A follow-up evaluation of the subjects was performed four weeks after cessation of the treatment. In addition to the measurement of food intake and weight, subjects were also assessed for the feelings of hunger and fullness over a 12-hour observation period on the day before treatment, the first day of treatment, and on Day 43. During the study, subjects were categorized by binge-eating severity as mild, moderate, or severe based on total BES scores.

[2] = Pramlintide on weight and anthropometric parameters, 16-week double-blind placebo-controlled study in obese subjects; format: in vivo, human
Procedure: In a randomized, double-blind, placebo-controlled study, changes in body weight and anthropometric parameters, as well as indicators of glycemic control (e.g., HbA1c), serum lipids and glucose tolerance, were assessed in response to pramlintide administration to obese (BMI≧30 kg/m^2 to ≦50 kg/m^2) non-diabetic individuals and obese individuals with non-insulin treated type 2 diabetes mellitus.

[3] = Adsorption onto glass container in liquid form; format: physicochemical
[4] = human trials; cited from earlier work
[5] = Combination therapy amylin + sibutramine in DIO prone rats; format: in vivo, rat; conditions: two weeks; for change in body weight (vehicle-corrected): amylin 100 μg/kg/day and/or sibutramine 3 mg/kg/day by mini-pumps; for fat mass / lean (protein) mass: amylin 100 μg/kg/day and/or sibutramine 3 mg/kg/day
Procedure: In-bred DIO prone rats were obtained from Charles Rivers Labs. These rats were developed from a line of Crl:CD®(SD)BR rats that are prone to become obese on a diet relatively high in fat and energy (Levin, 1997). The rats were housed individually in shoebox cages at 22° C. in a 12/12-hour light dark cycle. […] At the end of the fattening period they typically have a mean body weight of 500 g. Rats were then divided into treatment groups and implanted with two subcutaneous mini-pumps (Durect Corp).

[6] = Effect of amylin on sucrose food preference, sugar withdrawal and restraint stress; format: in vivo, rat
Procedure: The ability of amylin to modify food preference was examined in an animal model. Male, Sprague-Dawley® rats were submitted to a sugar withdrawal paradigm and observed for effects of stress on sugar intake. […] All rats were provided with ad libitum access to standard chow, water, and a 30% sucrose drink. Subsequently, the sucrose drink was removed and half of the rats were subjected, daily, to 3 h of mild restraint stress for 3 successive days. After 3 days, sucrose was provided and its daily average consumption was measured over 4 days. Chow intake was also measured over the 3 days of withdrawal and stress and over the following 4 days when sucrose was re-introduced. No restraint was applied during the 4 days of sucrose re-introduction. Results of this assay are shown in FIG. 1(A-D) where * is P<0.05 by ANOVA and Fisher LSD post-hoc analyses.

[7] = Effect of amylin on high fat food preference, 11-week osmotic pump treatment; format: in vivo, rat
Procedure: The ability of amylin to modify food preference was examined in an animal model. […] Animals had access to both low fat chow (6% fat kcal, 54% cornstarch kcal; #7012, Harlan Teklad, Madison, Wis.) and high fat chow (“palatable chow”) (58% fat kcal and 26% sucrose kcal; #D12311, Research Diets, New Brunswick, N.J.). Food intake and body weight were measured weekly. Just prior to treatment, and at the end of treatment, the amount of fat and lean tissue (expressed as g of tissue per 100 g of body weight) was measured via MRI (Echo MRI for rats, EchoMRI, Houston, Tex.).
Energy expenditure was assessed using an Oxymax animal monitoring system (Columbus Instruments, Columbus, Ohio) to measure oxygen consumption and carbon dioxide generation over time. From these measurements, heat (in kcal) was calculated and energy expenditure assessed.

[8] = Effect of amylin on body composition in DIO prone rats, 14 days of treatment then washout; format: in vivo, rat
Procedure: Diet-induced obesity (DIO) in the in the Sprague-Dawley rat is a valuable model for the study of obesity and regulation of energy homeostasis. […] All rats were housed individually in shoebox cages at 22° C. in a 12/12-hour light dark cycle. Amylin was administered by subcutaneous osmotic mini-pump (Durect Corp, Calif.). […] On day 14, mini-pumps were removed and replaced with pumps containing vehicle. For body composition, rats were scanned in a specialized rodent NMR machine (Echo Medical Systems) prior to drug treatment, and at the conclusion of the experiment, which enabled the calculation of percent changes in fat and lean composition (e.g., % body fat after treatment−% body fat at baseline=change in % body fat).

[9] = e.g., provoking marked hyperlactemia followed by hyperglycemia; cited from earlier work
[10] = cited from earlier work
[11] = CSI (N = 47), Baseline (Day −1)
[12] = TID (N = 59), Baseline (Day −1)
[13] = pramlintide 180 μg s.c. TID, after 6 weeks
[14] = 16 weeks, least squares mean±SE
[15] = after 16 weeks, evaluable population
[16] = at 11 weeks, compared to controls
[17] = day 28, after amylin days 1-14 and vehicle days 15-28
[18] = rat amylin 100 μg/kg/d s.c. mini-pump, days 2-14, vs vehicle controls

Compound: CC[C@H](C)[C@H](NC(=O)[C@@H]1CCCN1C(=O)CNC(=O)[C@H](Cc1ccccc1)NC(=O)[C@H](CC(N)=O)NC(=O)[C@H](CC(N)=O)NC(=O)[C@H](CO)NC(=O)[C@H](CO)NC(=O)[C@H](Cc1c[nH]cn1)NC(=O)[C@@H](NC(=O)[C@H](CC(C)C)NC(=O)[C@H](Cc1ccccc1)NC(=O)[C@H](CC(N)=O)NC(=O)[C@H](C)NC(=O)[C@H](CC(C)C)NC(=O)[C@H](CCCNC(=N)N)NC(=O)[C@H](CCC(N)=O)NC(=O)[C@@H](NC(=O)[C@H](C)NC(=O)[C@@H]1CSSC[C@H](NC(=O)[C@@H](N)CCCCN)C(=O)N[C@@H](CC(N)=O)C(=O)N[C@@H]([C@@H](C)O)C(=O)N[C@@H](C)C(=O)N[C@@H]([C@@H](C)O)C(=O)N1)[C@@H](C)O)C(C)C)C(=O)N[C@@H](CC(C)C)C(=O)N1CCC[C@H]1C(=O)N1CCC[C@H]1C(=O)N[C@H](C(=O)N[C@@H](CC(N)=O)C(=O)N[C@H](C(=O)NCC(=O)N[C@@H](CO)C(=O)N[C@@H](CC(N)=O)C(=O)N[C@H](C(=O)N[C@@H](Cc1ccc(O)cc1)C(N)=O)[C@@H](C)O)C(C)C)[C@@H](C)O [Pramlintide, ^25,28,29Pro-h-amylin]
- reduction of mean total caloric intake compared with pooled placebo ([1]; CSI 50 μg/h, Day 43): ~7%
- reduction of mean total caloric intake compared with pooled placebo ([1]; CSI 50 μg/h, first day of treatment): approximately 22%
- subjects with total BES score >17 to <27 (Moderate) [1, 11]: (36.2) %
- subjects with total BES score ≦17 (Mild) [1, 11]: (51.1) %
- subjects with total BES score ≧27 (Severe) [1, 11]: (12.8) %
- subjects with total BES score >17 to <27 (Moderate) ([1]; CSI (N = 47), Day 42): (17.0) %
- subjects with total BES score ≦17 (Mild) ([1]; CSI (N = 47), Day 42): (74.5) %
- subjects with total BES score ≧27 (Severe) ([1]; CSI (N = 47), Day 42): (8.5) %
- subjects with total BES score >17 to <27 (Moderate) ([1]; CSI (N = 47), Day 72): (14.9) %
- subjects with total BES score ≦17 (Mild) ([1]; CSI (N = 47), Day 72): (63.8) %
- subjects with total BES score ≧27 (Severe) ([1]; CSI (N = 47), Day 72): (8.5) %
- subjects with total BES score >17 to <27 (Moderate) [1, 12]: (23.7) %
- subjects with total BES score ≦17 (Mild) [1, 12]: (64.4) %
- subjects with total BES score ≧27 (Severe) [1, 12]: (8.5) %
- subjects with total BES score ≦17 (Mild) ([1]; TID (N = 59), Baseline (Day −1), listed as pramlintide): 64.4%
- subjects with total BES score >17 to <27 (Moderate) ([1]; TID (N = 59), Day 42): (11.9) %
- subjects with total BES score ≦17 (Mild) ([1]; TID (N = 59), Day 42): (83.1) %
- subjects with total BES score ≧27 (Severe) ([1]; TID (N = 59), Day 42): (5.1) %
- subjects with total BES score ≦17 (Mild) ([1]; TID (N = 59), Day 42, listed as pramlintide): 83.1%
- subjects with total BES score >17 to <27 (Moderate) ([1]; TID (N = 59), Day 72): (13.6) %
- subjects with total BES score ≦17 (Mild) ([1]; TID (N = 59), Day 72): (76.3) %
- subjects with total BES score ≧27 (Severe) ([1]; TID (N = 59), Day 72): (5.1) %
- reduction of mean total caloric intake compared with pooled placebo ([1]; TID, Day 43): ~15%
- reduction of mean total caloric intake compared with pooled placebo ([1]; TID, first day of treatment): approximately 17%
- placebo-corrected reduction from baseline in mean BES score ([1]; after 6 weeks): −45±13%
- proportion of subjects shifting to a lower binge-eating severity category ([1]; after 6 weeks, placebo […]): 24.6%
- reductions from baseline in the total BES score after cessation ([1]; four weeks after cessation of treatment): no longer statistically significant
- placebo-corrected reduction from baseline in 24-hour food intake [1, 13]: -489 ± 183 kcal
- placebo-corrected reduction from baseline in weight [1, 13]: −2.2±0.5%
- placebo-corrected reduction in hip circumference [2, 14]: 2.69±0.82 cm
- placebo-corrected reduction in waist circumference [2, 14]: 2.691±1.08 cm
- percentage of subjects achieving >5% reduction in baseline body weight ([2]; Class I (BMI <35 kg/m^2), n 43, placebo 0%): 39.5%
- percentage of subjects achieving >5% reduction in baseline body weight ([2]; Class II (BMI ≧35 kg/m^2 to <40 kg/m^2), n 25, placebo 0%): 28.0%
- percentage of subjects achieving >5% reduction in baseline body weight ([2]; Class II (BMI ≧40 kg/m^2), n 29, placebo 5.0%): 20.7%
- placebo-corrected mean weight loss [2, 15]: 3.52 kg
- placebo-corrected mean weight loss, of initial body weight [2, 15]: 3.6%
- subjects who lost ≧5% of body weight ([2]; after 16 weeks, placebo 2%): 31%
- tendency to adsorb onto the glass [3]: does not have a tendency to adsorb onto the glass
- weight or weight gain [4]: reduce weight or weight gain

Compound: CC(C)CC(N(C)C)C1(c2ccc(Cl)cc2)CCC1 (stereo not drawn) [sibutramine]
- change in body weight (vehicle-corrected) [5]: approximately 5%
- fat mass [5]: Fat mass loss was also evident
- lean (protein) mass [5]: relatively unchanged

Compound: Rat amylin
- average sucrose to chow consumption ratio (as % of baseline) ([6]; rat amylin 300 μg/kg/d by osmotic pump, restraint-stressed rats, 4 days of sucrose re-introduction): prevents the increase in the average sucrose to chow consumption ratio
- sucrose intake ([6]; rat amylin 300 μg/kg/d, stressed and non-stressed rats, vs vehicle treated controls): decreases sucrose intake in both stressed and non-stressed conditions
- stress-induced decrease in chow intake and total kcals ([6]; rat amylin 300 μg/kg/d, treatment group vs control group): less pronounced in the treatment group
- 24 h energy expenditure, dark phase increase [7, 16]: 6.6%
- 24 h energy expenditure, light phase increase [7, 16]: 9.7%
- fat mass, change in percent of total mass ([7]; pre- vs post-treatment, MRI, vehicle 3.7±0.9): −3.6±1.0%
- lean tissue, change in percent of total mass ([7]; pre- vs post-treatment, MRI, vehicle −0.53±0.21, not significant): 0.08±0.23%
- percent total calories from low fat chow (main effect) ([7]; rat amylin 300 μg/kg/d, 11 weeks, vehicle 4.3±0.6): 12.2±3.2%
- body weight gain ([7]; rat amylin 300 μg/kg/d, 11 weeks, vehicle 126±10): 50 ± 11 g
- calories from low fat chow (main effect) ([7]; rat amylin 300 μg/kg/d, 11 weeks, vehicle 271±42): 633 ± 145 kcal
- calories from high fat chow over 11 weeks (FIG. 2) ([7]; rat amylin 300 μg/kg/d, 11 weeks, vehicle 6315±111, mean±SEM): 5309 ± 202 kcal
- percent of body fat [8, 17]: lower percent of body fat
- percent of lean body mass [8, 17]: higher percent of lean body mass
- body weight [8, 18]: significantly decreased
- cumulative food intake [8, 18]: significantly decreased
- change in body weight (vehicle-corrected) [5]: approximately 5%
- fat mass [5]: Fat mass loss was also evident
- lean (protein) mass [5]: increased

Compound: ^18Arg^25,28Pro-h-amylin (KCNTATCATQRLANFLVRSSNNFGPILPSTNVGSNTY)
- amylin activity in vivo [9]: show amylin activity in vivo
- solubility and stability characteristics compared to human amylin [10]: more desirable solubility and stability characteristics

Compound: ^25Pro^26Val^28,29Pro-h-amylin (KCNTATCATQRLANFLVHSSNNFGPVLPPTNVGSNTY)
- solubility and stability characteristics compared to human amylin [10]: more desirable solubility and stability characteristics

Compound: ^28Pro-h-amylin (KCNTATCATQRLANFLVHSSNNFGAILPSTNVGSNTY)
- amylin activity in vivo [9]: show amylin activity in vivo

Compound: des-^1Lys-h-amylin (CNTATCATQRLANFLVHSSNNFGAILSSTNVGSNTY)
- amylin activity in vivo [9]: show amylin activity in vivo

Compound: des-^1Lys^18Arg^25,28Pro-h-amylin (CNTATCATQRLANFLVRSSNNFGPILPSTNVGSNTY)
- amylin activity in vivo [9]: show amylin activity in vivo
